According to patent US5098995A, “GRF Analogs VIIA” (The Salk Institute For Biological Studies, priority 1989, dated 1992):
Ends that are not written are not given here.

These substances were tested on cells of rat pituitary glands (assay: in vitro assay of growth hormone release from cultured rat pituitary cells, side-by-side with the hpGRF(1-40)-OH standard). Settings: potency for GH release relative to hGRF(1-40)-OH standard = 1.0; equimolar concentrations; rat pituitary cell cultures; incubation 3 to 4 hours; ir GH by radioimmunoassay; limits in brackets.
Type: cell-based
Procedure: To determine the relative effectiveness of certain representative synthetic peptides to promote the release of growth hormone, in vitro assays are carried out using synthetic hpGRF(1-40)-OH as a standard in side-by-side comparison with equimolar concentrations of the representative analogs which have been synthesized. Cultures are used which include cells of rat pituitary glands removed some three to five days previously. Such cultures are considered optimal for the secretion of growth hormone and are used for the comparative testing, in the general manner described in Vale et al. Endocrinology, 91, 562-572 (1972) and as more particularly described in Vale et al. Endocrinology, 112, 1553-1555 (1983). Incubation with the substance to be tested is carried out for 3 to 4 hours, and aliquots of the culture medium are removed and processed to measure their contents in immunoreactive GH(ir GH) by a well-characterized radioimmunoassay.

Row | Substance | In Vitro Potencies
1 | hGRF(1-40)--OH: synthetic human pancreatic/hypothalamic GH releasing factor (1-40) free acid, used as the standard in the in vitro and in vivo tests (YADAIFTNSYRKVLGQLSARKLLQDIMSRQQGESNQERGA-OH; UniProt P01286 32-71, looked up, fragment) [reference compound] | 1.0
2 | [N^a MeTyr^1, Ala^15, CML^17, Nle^27, Asn^28 ]-hGRF(1-29)-NH2 | 5.41 (3.5-8.3)
3 | [N^a MeTyr^1, Ala^15, CML^22, Nle^27, Asn^28 ]-hGRF(1-29)-NH2 | 7.18 (4.1-12.7)
4 | [N^a MeTyr^1, CMA^13, Ala^15, Nle^27, Asn^28 ]-hGRF(I-29)-NH2 | 2.24 (1.4-3.4)
5 | [N^a MeTyr^1, Ala^15, CML^23, Nle^27, Asn^28 ]-hGRF(1-29)-NH2 | 1.96 (1.1-3.3)
6 | [N^a MeTyr^1, Ala^15, CMA^19, Nle^27, Asn^28 ]-hGRF(1-29)-NH2 | 7.07 (3.8-13.6)
7 | [N^a MeTyr^1, Ala^15, CML^26, Nle^27, Asn^28 ]-hGRF(1-29)-NH2 | 6.44 (4.0-10.3)
8 | [N^a MeTyr^1, CML^5, Ala^15, Nle^27, Asn^28 ]-hGRF(1-29)-NH2 | 3.59 (2.3-5.5)
